Reference: US5091539A, “Azolyl cycloalkanol derivatives and agricultural fungicides” (Shionogi & Co., Ltd., priority 1984, dated 1992)

System: Sphaerotheca fuliginea
Test: Control test to powdery mildew of cucumber (foliar and soil treatment)
Type: in vivo
Settings: for Foliar Treatment, Curative Effect / Foliar Treatment, Protective Effect / Soil Treatment, Protective Effect: index 0-10; for Protective Index, Foliar Treatment / Protective Index, Soil Treatment: 14 days
Experimental: (1) Seeds of cucumber (Cultivar: Matsukaze) were sown in a pot of 9 cm in diameter and the pots were kept in a green house until the plant was grown for 2-3 leaf stage. The first leaf was sprayed with, (i) 3 ml each of solutions containing the test compound at the prescribed concetrations and dried by the air (foliar treatment). Inoculation of spore suspension of Sphaerotheca fuliginea by spraying was practised 2 days before the treatment (curative effect) or 1 day after the treatment (protective effect). Alternatively, (ii) 5 ml of the solution was applied at the root of the seedlings (soil treatment). The pots were kept in a greenhouse for 2 days and inoculation was practised in the same manner noted above. (iii) After sprayed with 3 ml of a solution of the test compound at a concentration of 125 ppm and dried by the air, the treated pots were set in a greenhouse. Untreated pots were placed next to the treated pots. Those treated and untreated plants were inoculated with spore suspension. Protective effect of the test compounds by vapor was thus checked. The effect was examined 14 days after the inoculation of the spores.
0: Disease sign is observed on the whole leaf.
3: Disease sign is observed on the leaf in about 50%.
5: Disease sign is observed on the leaf in about 30%.
7: Disease sign is observed on the leaf in about 20%.
9: a little disease sign is observed.
(1) Test methods and evaluation are the same as those in Tests 2, 4 and 6.

| Compound | Foliar Treatment, Curative Effect (second Table 4, 0.5 ppm) | Foliar Treatment, Protective Effect (second Table 4, 0.5 ppm) | Soil Treatment, Protective Effect (second Table 4, 0.5 ppm) | Foliar Treatment, Curative Effect (second Table 4, 2.0 ppm) | Foliar Treatment, Protective Effect (second Table 4, 2.0 ppm) | Soil Treatment, Protective Effect (second Table 4, 2.0 ppm) | Foliar Treatment, Curative Effect (second Table 4, 7.8 ppm) | Foliar Treatment, Protective Effect (second Table 4, 7.8 ppm) | Soil Treatment, Protective Effect (second Table 4, 7.8 ppm) | Foliar Treatment, Curative Effect (second Table 4, 31.3 ppm) | Foliar Treatment, Protective Effect (second Table 4, 31.3 ppm) | Soil Treatment, Protective Effect (second Table 4, 31.3 ppm) | Protective Index, Foliar Treatment (first Table 4, 125 ppm) | Protective Index, Soil Treatment (first Table 4, 125 ppm) | Protective Index, Soil Treatment (first Table 4, 500 ppm) |
| --- | --- | --- | --- | --- | --- | --- | --- | --- | --- | --- | --- | --- | --- | --- | --- |
| O[C@@]1(c2ccc(Cl)c(Cl)c2)CCCC[C@H]1n1cncn1 (relative stereo) [Compound 33] | 3 (Disease sign is observed on the leaf in about 50%.) | 0 | 0 | 10 | 5 (Disease sign is observed on the leaf in about 30%.) | 0 | 10 | 10 | 0 | 10 | 10 | 0 | – | – | – |
| O[C@@]1(c2cccc(Cl)c2)CCCC[C@H]1n1cncn1 (relative stereo) [Compound 31] | 3 (Disease sign is observed on the leaf in about 50%.) | 0 | – | 9 | 0 | – | 10 | 9 | – | 10 | 10 | – | – | – | – |
| O[C@@]1(c2ccc(Cl)cc2)CCCC[C@H]1n1ccnc1 (relative stereo) [Compound 26] | 0 | 0 | – | 7 (Disease sign is observed on the leaf in about 20%.) | 3 (Disease sign is observed on the leaf in about 50%.) | – | 9 | 9 | – | 10 | 10 | – | – | – | – |
| O[C@@]1(c2ccc(F)cc2)CCCCC[C@H]1n1ccnc1 (relative stereo) [Compound 23] | 0 | 0 | – | 3 (Disease sign is observed on the leaf in about 50%.) | 5 (Disease sign is observed on the leaf in about 30%.) | – | 10 | 10 | – | 10 | 10 | – | – | – | – |
| O[C@@]1(c2cccs2)CCCC[C@H]1n1ccnc1 (relative stereo) [Compound 6, cis-1-(2-thienyl)-2-imidazolylcyclohexanol] | – | – | – | – | – | – | – | – | – | – | – | – | 10 | 0 | – |
| O[C@@]1(Cc2ccc(Cl)cc2Cl)CCCC[C@H]1n1cncn1 (relative stereo) [Compound 3, cis-1-(2,4-dichlorobenzyl)-2-(1,2,4-triazol-1-yl)cyclohexanol] | – | – | – | – | – | – | – | – | – | – | – | – | 10 | 10 | – |
| O[C@@]1(c2ccc(Cl)cc2)CCCCC[C@H]1n1ccnc1 (relative stereo) [Compound 27] | 0 | 0 | – | 5 (Disease sign is observed on the leaf in about 30%.) | 3 (Disease sign is observed on the leaf in about 50%.) | – | 10 | 9 | – | 10 | 10 | – | – | – | – |
| O[C@@]1(c2ccc(Cl)c(Cl)c2)CCCCC[C@H]1n1cncn1 (relative stereo) [Compound 34] | 5 (Disease sign is observed on the leaf in about 30%.) | 0 | 0 | 10 | 0 | 0 | 10 | 9 | 0 | 10 | 10 | 0 | – | – | – |
| O[C@@]1(c2cc(Cl)ccc2Cl)CCCC[C@H]1n1cncn1 (relative stereo) [Compound 35] | 10 | 5 (Disease sign is observed on the leaf in about 30%.) | 0 | 10 | 10 | 0 | 10 | 10 | 9 | 10 | 10 | 10 | – | – | – |
| O[C@@]1(c2ccc(F)cc2)CCCC[C@H]1n1ccnc1 (relative stereo) [Compound 29] | 0 | 0 | – | 3 (Disease sign is observed on the leaf in about 50%.) | 3 (Disease sign is observed on the leaf in about 50%.) | – | 9 | 9 | – | 10 | 10 | – | – | – | – |
| O[C@@]1(Cc2ccc(Cl)cc2)CCCCC[C@H]1n1cncn1 (relative stereo) [Compound 5, cis-1-(4-chlorobenzyl)-2-(1,2,4-triazol-1-yl)cycloheptanol] | – | – | – | – | – | – | – | – | – | – | – | – | 10 | 3 (Disease sign is observed on the leaf in about 50%.) | – |
| Cc1ccc2nc3sc(=O)sc3nc2c1 [Chinomethionat, reference compound] | – | – | – | – | – | – | – | – | – | – | – | – | 10 | – | – |
| CCCCc1c(C)nc(N(C)C)nc1O [Dimethirimol, reference compound] | – | – | – | – | – | – | – | – | – | – | – | – | – | – | 5 (Disease sign is observed on the leaf in about 30%.) |
